Test results reported in paper PMC8704606, “The Artemiside-Artemisox-Artemisone-M1 Tetrad: Efficacies against Blood Stage P. falciparum Parasites, DMPK Properties, and the Case for Artemiside” (Pharmaceutics, 2021).
Where two headings read alike, the source gives them in different places.

Legend:
TM-C2B = system: TM-C2B; set-up: method as in ref S2; conditions: [3H]-hypoxanthine assay; ref S2; read-out: Antimalarial activities IC50 TM-C2B; cited from earlier work
HepG2 = conditions: cited from earlier work; for SI = EC50 HepG2/IC50 P. berghei sporozoites: ref S3
P. berghei sporozoites = conditions: cited from earlier work; for Maximum inhibition % P. berghei sporozoites: ref S3; for IC50: luciferase-expressing P. berghei ANKA GFP-Luc-SMcon sporozoites in HepG2 cells, 48 h, ± SD, ref S3 (7)
[1] = system: TM91-C235 (CQ and MFQ resistant); set-up: method as in ref S2; conditions: [3H]-hypoxanthine assay; ref S2; read-out: Antimalarial activities IC50 TM91-C235; cited from earlier work
7G8 (CQ resistant) = system: 7G8 (CQ resistant); set-up: method as in ref S2; conditions: [3H]-hypoxanthine assay; ref S2; read-out: Antimalarial activities IC50 7G8; cited from earlier work
[2] = system: TM93-C1088 (atovaquone and CQ resistant); set-up: method as in ref S2; conditions: [3H]-hypoxanthine assay; ref S2; read-out: Antimalarial activities IC50 TM93-C1088; cited from earlier work
[3] = system: asexual blood stages of Pf K1 (drug resistant); set-up: method as in PMID 29866868, PMID 31998692; conditions: cited from earlier work; for IC50: asexual blood stage Pf K1, multidrug resistant, SYBR Green I, ± SEM
D6 (CQ sensitive) = system: D6 (CQ sensitive); set-up: method as in ref S2; conditions: [3H]-hypoxanthine assay; ref S2; read-out: Antimalarial activities IC50 D6; cited from earlier work
[4] = system: asexual blood stages of Pf NF54 (drug sensitive); set-up: method as in PMID 29866868, PMID 31998692; conditions: asexual blood stage Pf NF54, CQ sensitive; SYBR Green I; ± SEM; cited from earlier work
[5] = Cytotoxicity (LDH assay) against HepG2 cells; type: cell-based; conditions: human
Procedure: Cytotoxicity against mammalian hepatocellular carcinoma cells (HepG2 cells) was determined using the lactate dehydrogenase assay (LDH, Biovision Inc., Milpitas, CA, USA). […] Compound working solutions were prepared from 10 mM stock solutions (100% DMSO) in complete DMEM to a final DMSO (Sigma-Aldrich) conc. of <0.1% (vol/vol). […] Data analysis was performed using GraphPad Prism (version 6) software.

W2 (CQ resistant) = system: W2 (CQ resistant); set-up: method as in ref S2; conditions: [3H]-hypoxanthine assay; ref S2; read-out: Antimalarial activities IC50 W2; cited from earlier work
[6] = system: type II tachyzoites (PRU-Luc-GFP); conditions: sc 10 mg/kg/d for 8 days; cited from earlier work
[7] = system: early-stage (EG) Pf NF54 gametocytes; set-up: method as in PMID 29866868; conditions: early-stage gametocytes >95% stages II-III; 48 h incubation; ± SEM; cited from earlier work
[8] = system: late-stage (LG) Pf NF54 gametocytes; set-up: method as in PMID 29866868; conditions: late-stage gametocytes >90% stages IV-V; 48 h incubation; ± SEM; cited from earlier work
[9] = set-up: method as in PMID 34097488; conditions: cited from earlier work
[10] = system: asexual blood stages of Pf W2 (drug resistant); set-up: method as in PMID 29866868, PMID 31998692; conditions: cited from earlier work; for IC50: asexual blood stage Pf W2, multidrug resistant, SYBR Green I, ± SEM
P. falciparum W2 = system: P. falciparum W2; set-up: method as in ref S3; conditions: [3H]-hypoxanthine assay; ref S3; cited from earlier work
[11] = system: P. falciparum asexual blood stage artemisinin-resistant clone ARC08-22 (4G) carrying the PfKI3 C580Y mutation; set-up: method as in ref S3; conditions: ref S3, cited from earlier work
[12] = system: Chinese hamster ovary (CHO) cells; set-up: method as in PMID 29866868, PMID 31998692; conditions: other cell lines including CHO cells; read-out: EC50 cytotoxicity; cited from earlier work
[13] = system: P. falciparum asexual blood stage artemisinin-resistant clone PL08-009 (5C) carrying the PfKI3 C580Y mutation; set-up: method as in ref S3; conditions: ref S3, cited from earlier work
[14] = system: fetal rat brain stem cells; conditions: ref S4 (24), cited from earlier work
[15] = effect on the cytoskeleton on day 7

For `O=C1C(O)=C([C@H]2CC[C@H](c3ccc(Cl)cc3)CC2)C(=O)c2ccccc21` [Atovaquone], the IC50 (TM-C2B) is listed as 31800 nM, the EC50 (HepG2) is listed as > 250 nM and the “SI = EC50 HepG2/IC50 P. berghei sporozoites” value (HepG2) is listed as > 100. The “Maximum inhibition % P. berghei sporozoites” value (P. berghei sporozoites; at 0.5 µM) was 94.85±2.76%, the IC50 (P. berghei sporozoites) was 2.52 ± 0.997 nM and the IC50 [1] was 2.2 ± 0.7 nM. The IC50 (7G8 (CQ resistant)) was 3.1 ± 0.9 nM and the IC50 [2] was 18800 nM.
In the case of `COc1ccc(C[C@H](N)C(=O)N[C@H]2[C@@H](O)[C@H](n3cnc4c(N(C)C)ncnc43)O[C@@H]2CO)cc1` [Puromycin, reference compound], the EC50 (HepG2) is given as 117 nM, the “SI = EC50 HepG2/IC50 P. berghei sporozoites” value (HepG2) is given as 5.15 and the “Maximum inhibition % P. berghei sporozoites” value (P. berghei sporozoites; at 5 µM) is given as 110±4.24%. For the same compound, the IC50 (P. berghei sporozoites) was 22.7 ± 4.53 nM.
In the case of `CCN(CC)CCCC(C)Nc1ccnc2cc(Cl)ccc12` (stereo not shown) [Chloroquine], the IC50 [3] is given as 154 ± 14 nM, the IC50 (TM-C2B) is given as 95 ± 23 nM and the IC50 (D6 (CQ sensitive)) is given as 16 ± 2 nM. The IC50 [4] was 10 ± 3 nM, the IC50 at 24 h [5] was 58400 nM and the IC50 (W2 (CQ resistant)) was 195 ± 70 nM. The IC50 [1] was 70 ± 12 nM, the IC50 (7G8 (CQ resistant)) was 84 ± 18 nM and the IC50 [2] was 360 ± 38 nM.
For `OC(c1cc(C(F)(F)F)nc2c(C(F)(F)F)cccc12)C1CCCCN1` (stereo not shown) [Mefloquine], the IC50 (TM-C2B) is listed as 130 ± 51 nM, the IC50 [1] is listed as 107 ± 41 nM and the IC50 (7G8 (CQ resistant)) is listed as 5.4 ± 1.7 nM. The IC50 [2] was 16 ± 5 nM.
For `C[C@@H]1CC[C@H]2[C@@H](C)C(=O)O[C@@H]3O[C@@]4(C)CC[C@@H]1[C@]32OO4` [Artemisinin 1, Artemisinin, reference compound], the “mice surviving the infection, acute phase” value [6] is listed as “all mice treated with artemisinin succumbed to infection”.
In the case of `CN(C)c1ccc2nc3ccc(=[N+](C)C)cc-3sc2c1` [Methylene Blue], the IC50 [7] is listed as 95 ± 11.3 nM, the IC50 [4] is listed as 5 ± 0.8 nM and the IC50 [8] is listed as 143 ± 16.7 nM.
In the case of `CO[C@H]1O[C@@H]2O[C@@]3(C)CC[C@H]4[C@H](C)CC[C@@H]([C@H]1C)[C@@]24OO3` [Artemether 3, Artemether], the IC50 [3] is given as 9 ± 2 nM, the “RI (resistance index) = IC50 K1/IC50 NF54” value [3] is given as 4.8 and the IC50 [7] is given as 37.7 ± 2 nM. For the same compound, the IC50 [4] was 1.86 ± 0.17 nM, the IC50 [8] was 136 ± 85.9 nM and the “Maximum inhibition % P. berghei sporozoites” value (P. berghei sporozoites; at 10 µM) was 49.4%. The IC50 (P. berghei sporozoites) was > 104 nM, the IC50 (P. berghei sporozoites; listed as artemether 3) was > 10000 nM and the “F% (oral bioavailability)” value [9] was 2%. For the same compound, the Cmax ([9]; oral administration, same dose, same murine model) was 600 nM, the IC50 [10] was 7 ± 1 nM and the “RI = IC50 W2/IC50 NF54” value [10] was 3.8.
For `C[C@H]1[C@@H](O)O[C@@H]2O[C@@]3(C)CC[C@H]4[C@H](C)CC[C@@H]1[C@@]24OO3` [DHA 2, Dihydroartemisinin], the IC50 (P. falciparum W2) is listed as 4.58 nM, the IC90 (P. falciparum W2) is listed as 10.3 nM and the IC50 [3] is listed as 1.51 ± 0.33 nM. The “RI (resistance index) = IC50 K1/IC50 NF54” value [3] was 0.6, the IC50 (TM-C2B) was 2 ± 0.7 nM and the IC50 (D6 (CQ sensitive)) was 1.7 ± 0.4 nM. For the same compound, the IC50 [7] was 43 ± 3.9 nM, the IC50 [4] was 2.51 ± 0.19 nM and the IC50 ([11]; 48 h life cycle, PfKI3 C580Y) was 6.68 nM. The IC90 ([11]; 48 h life cycle, PfKI3 C580Y) was 15.4 nM, the “RI = IC50 for ARC08-22(4G)/IC50 for W2” value [11] was 1.5 and the EC50 [12] was 25200 nM. The IC50 ([13]; 36 h life cycle, PfKI3 C580Y) was 6.41 nM, the IC90 ([13]; 36 h life cycle, PfKI3 C580Y) was 10.7 nM and the “RI = IC50 for PL08-09 (5C)/IC50 for W2” value [13] was 1.4. The IC50 (W2 (CQ resistant)) was 2.2 ± 0.8 nM, the IC50 [8] was 33.7 ± 1.98 nM and the IC50 [1] was 2.3 ± 0.7 nM. For the same compound, the “ATP IC50” value ([14]; ATP levels 1 day after initial administration) was 0.08 µg/mL, the “Neurofilaments IC50” value [14, 15] was 0.01 µg/mL and the “Neurofilaments NOEC” value [14, 15] was < 0.001 µg/mL. The “Viability IC50” value ([14]; neuron-specific enolase activity, 7 days exposure) was 5.0 µg/mL, the IC50 [10] was 1.74 ± 0.22 nM and the “RI = IC50 W2/IC50 NF54” value [10] was 0.7. The IC50 (7G8 (CQ resistant)) was 1.3 ± 0.2 nM and the IC50 [2] was 1.4 ± 0.4 nM.
